The values below come from patent US20190231791A1, “Combination Therapy” (Eli Lilly and Company, priority 2016, published 2019).

Where two headings read alike, the source gives them in different places.

Test [1] has as its target T1, beta-secretase (Mus musculus, UniProt P56818).
T1 construct: from tissue; host or cells: brain (hippocampus, cortex) of young female PDAPP mice, in vivo dosing
The test is described as follows: In vivo inhibition of beta-secretase, brain Abeta 1-x in PDAPP mice. The conditions noted are these: young female PDAPP mice, three hours after dosing, vs vehicle, p<0.01. An excerpt: Several animal models, including mouse, guinea pig, dog, and monkey, may be used to screen for inhibition of beta-secretase activity in vivo following compound treatment. Animals used in this invention can be wild type, transgenic, or gene knockout animals. For example, the PDAPP mouse model, prepared as described in Games et al., Nature 373, 523-527 (1995), and other non-transgenic or gene knockout animals are useful to analyze in vivo inhibition of Abeta and sAPPbeta production in the presence of inhibitory compounds. Generally, 2 month old PDAPP mice, gene knockout mice or non-transgenic animals are administered compound formulated in vehicles, such as corn oil, beta-cyclodextran, phosphate buffers, PHARMASOLVE®, or other suitable vehicles via oral, subcutaneous, intra-venous, feeding, or other route of administration. 1 to 24 hours following the administration of compound, animals are sacrificed, and brains are removed for analysis of Abeta 1-x. “Abeta 1-x” as used herein refers to the sum of Abeta species that begin with residue 1 and end with a C-terminus greater than residue 28. This detects the majority of Abeta species and is often called “total Abeta”. Total Abeta peptides (Abeta 1-x) levels are measured by a sandwich ELISA, using monoclonal 266 as a capture antibody and biotinylated 3D6 as reporting antibody. (See May, et al., Journal of Neuroscience, 31, 16507-16516 (2011)).
For acute studies, compound or appropriate vehicle is administered and animals are sacrificed at about 3 hours after dosing. Brain tissue, is obtained from selected animals and analyzed for the presence of Abeta 1-x. After chronic dosing brain tissues of older APP transgenic animals may also be analyzed for the amount of beta-amyloid plaques following compound treatment.
For example, a 0.1, 0.3, and 1 mg/kg oral dose of Example 1, to young female PDAPP mice reduced Abeta 1-x peptide levels in brain hippocampus by 32%, 40%, and 55% (all values p<0.01), respectively.

Test [2] addresses T2, human BACE2 (1-460):Fc (Homo sapiens, UniProt Q9Y5Z0).
T2 construct: 10 μL of 200 picomolar human BACE2 (1-460):Fc in the same reaction buffer; made in house; host or cells: HEK293 (transient transfection, purified from conditioned media by Protein A)
T2 sequence (Q9Y5Z0 21-460): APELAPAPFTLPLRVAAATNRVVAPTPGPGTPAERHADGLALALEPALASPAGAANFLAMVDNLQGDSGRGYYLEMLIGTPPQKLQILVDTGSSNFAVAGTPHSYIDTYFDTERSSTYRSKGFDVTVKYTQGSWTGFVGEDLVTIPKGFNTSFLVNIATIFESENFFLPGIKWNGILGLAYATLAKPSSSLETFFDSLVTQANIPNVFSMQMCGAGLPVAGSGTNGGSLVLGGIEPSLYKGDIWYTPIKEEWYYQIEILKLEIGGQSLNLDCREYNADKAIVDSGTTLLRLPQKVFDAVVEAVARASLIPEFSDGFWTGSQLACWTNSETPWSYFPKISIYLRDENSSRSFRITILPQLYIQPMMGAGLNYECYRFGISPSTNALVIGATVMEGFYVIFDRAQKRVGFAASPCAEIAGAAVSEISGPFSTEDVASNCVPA
In words: BACE2 MBP-C125Swe assay. It counts as biochemical. How it is done: (§1) To assess selectivity of BACE1 over BACE2, the test compound is evaluated in FRET and immunoassay detection base enzymatic assays using specific substrates for BACE1 and BACE2 as described below. For in vitro enzymatic and cellular assays, the test compound is prepared in DMSO to make up a 10 mM stock solution. The stock solution is serially diluted in DMSO to obtain a ten-point dilution curve with final compound concentrations ranging from 10 μM to 0.05 nM in a 96-well round-bottom plate before conducting the in vitro enzymatic and whole cell assays.
Human BACE1 (accession number: AF190725) and human BACE2 (accession number: AF 204944) are cloned from total brain cDNA by RT-PCR. The nucleotide sequences corresponding to amino acid sequences #1 to 460 are inserted into the cDNA encoding human IgG1 (Fc) polypeptide (Vassar et al., Science, 286, 735-742 (1999)). This fusion protein of BACE1(1-460) or BACE2(1-460) and human Fc, named huBACE1:Fc and huBACE2:Fc respectively, are constructed in the pJB02 vector. […]
Conditioned media of HEK293 cells transiently transfected with huBACE1:Fc or huBACE2:Fc cDNA are collected. […] The purity of final product is assessed by electrophoresis in 4-20% Tris-Glycine SDS-PAGE. […]
10 point serial dilutions of test compounds are prepared in the appropriate range. […] The amount of product is measured by ELISA using MBP-C26swe standard. […]

For test [3], the target named is T3, BACE1 (Homo sapiens, UniProt P56817).
T3 construct: endogenous in cells; host or cells: SH-SY5Y (ATCC CRL2266) stably expressing human APP695Wt
The test is described as follows: SH-SY5YAPP695Wt whole cell assay (Abeta ELISA). The conditions noted are these: 24 hours incubation. It counts as cell-based. The procedure: as §1
The routine whole cell assay for the measurement of inhibition of BACE1 activity utilizes the human neuroblastoma cell line SH-SYSY (ATCC Accession No. CRL2266) stably expressing a human APP695Wt cDNA. Cells are routinely used up to passage number 6 and then discarded.
SH-SY5YAPP695Wt cells are plated in 96 well tissue culture plates at 5.0×10^4 cells/well in 200 μL culture media (50% MEM/EBSS and Ham's F12, 1× each sodium pyruvate, non-essential amino acids and NaHCO3 containing 10% FBS). […]
At the end of the incubation, conditioned media are analyzed for evidence of beta-secretase activity by analysis of Abeta peptides 1-40 and 1-42 by specific sandwich ELISAs. […]

T1 sequence (P56818 46-501): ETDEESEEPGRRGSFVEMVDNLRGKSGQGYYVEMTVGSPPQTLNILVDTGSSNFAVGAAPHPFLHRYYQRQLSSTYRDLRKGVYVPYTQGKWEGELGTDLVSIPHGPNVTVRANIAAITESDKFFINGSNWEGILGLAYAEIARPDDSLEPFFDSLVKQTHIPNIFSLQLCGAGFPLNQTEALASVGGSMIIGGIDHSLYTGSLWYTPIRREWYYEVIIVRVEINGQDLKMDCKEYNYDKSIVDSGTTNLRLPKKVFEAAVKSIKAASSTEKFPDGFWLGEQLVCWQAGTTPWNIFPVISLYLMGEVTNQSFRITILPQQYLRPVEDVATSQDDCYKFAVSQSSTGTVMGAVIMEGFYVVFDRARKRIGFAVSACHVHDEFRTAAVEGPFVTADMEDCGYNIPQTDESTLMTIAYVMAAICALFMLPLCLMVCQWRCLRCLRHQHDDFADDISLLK
T3 sequence (P56817 46-501): as the sequence (P56818 46-501) above, with S6P, I162V, I165L, T180S, A182V, V340I, A393L, H443Q counted along it

In the case of `CC(F)(F)[C@H]1OC[C@]2(c3cc(NC(=O)c4ccc(C#N)cn4)ccc3F)N=C(N)SC[C@H]12` [Example 1, N-[3-[(4aS,5S,7aS)-2-Amino-5-(1,1-difluoroethyl)-4,4a,5,7-tetrahydrofuro[3,4-d][1,3]thiazin-7a-yl]-4-fluoro-phenyl]-5-cyano-pyridine-2-carboxamide], the “reduction of Abeta 1-x levels in brain cortical tissue” value in test [1] (0.1 mg/kg oral) came out at 38%; in test [1] (0.3 mg/kg oral) it was 50%; in test [1] (1 mg/kg oral), 67%. The “reduction of Abeta 1-x peptide levels in brain hippocampus” value in test [1] (0.1 mg/kg oral) was 32%; in test [1] (0.3 mg/kg oral), 40%; in test [1] (1 mg/kg oral) it was 55%. For the same molecule, the “selectivity for BACE1 over BACE2 (BACE2 IC50 / BACE1 IC50)” value in test [2] was “approximately 35 fold”. Further, the IC50 in test [3] (± 0.048, n=4, read-out: IC50 for SH-SY5YAPP695Wt A-beta (1-40) ELISA) amounted to 0.157 nM; in test [3] (± 0.050, n=4, read-out: IC50 for SH-SY5YAPP695Wt A-beta (1-42) ELISA), 0.177 nM.
